Measured values as given in patent publication US9242937B2, “Pharmaceutically active disubstituted pyridine derivatives” (Bayer Intellectual Property GmbH, priority 2011, dated 2016).

Experiments:
CDK9 = molecular target: T1, CDK9 (Homo sapiens, UniProt P50750); experiment: Lance Ultra KinaSelect Assay, CDK9; type: biochemical; conditions: ULight MBP substrate; cyclin partner not stated in Table 5; read-out: CDK9 LANCE assay (activity range), IC50
T1 construct: purchased Invitrogen
Method: (§1) This protocol describes how the Lance Ultra KinaSelect Assay was performed to determine half maximal inhibitory concentration (IC50) of compounds of general formula (I) and CDK/Cyclin complexes. The principle behind this enzymatic assay is based upon the phosphorylation of the ULight-Peptide Substrat. It is detected by using a specific EU-labeled anti-phospho peptide antibody. The binding of the Eu-labeled anti-phospho peptide antibody to the phosphorylated ULight labeled peptide gives rise to a FRET-signal. Binding of an inhibitor to the kinase prevents phosphorylation of the ULight-MBP Substrat, resulting in a loss of FRET.
(§2) The compounds of general formula (I) summarized in Table 5 were diluted from a 10 mM DMSO stock solution 1:10 in a total volume of 15 μL DMSO. This compound predilution was then serial diluted 1:3 over 8 steps in DMSO and briefly spun down. Each compound solution was now diluted 1:20 in Enzymatic Buffer (HEPES: 50 mM, pH: 7.5; MgCl2: 10 mM; EGTA: 1 mM; DTT: 2 mM; Tween-20: 0.01%), mixed thoroughly and spun down. For every sample, 2 μL of the diluted compound were mixed with 6 μL CDK/Cyclin/Substrat solution and 2 μL ATP solution in a well of a small volume 384 well plate (Corning Incorporated, Corning, N.Y., USA; order no. 3673). The CDK/Cyclin was diluted to the appropriate concentration (see Table 3) and the ATP concentration was adjusted to its […] for the CDK/Cyclin, which was 3 μM for CDK2/Cyclin A, 20 μM for CDK1/Cyclin B1, 25 μM for CDK7/Cyclin H and CDK9/Cyclin T1, 55 μM for CDK6/Cyclin D3, 90 μM for CDK4/Cyclin D1 and 125 μM for CDK9/Cyclin K. For negative controls, in each well 2 μL of DMSO solution (1% final DMSO assay concentration) was mixed with 6 μL substrate solution (50 nM ULight MBP final assay concentration) and 2 μL ATP solution (appropriate final concentration see Table 3). For positive controls, in each well 2 μL of DMSO solution (1% final DMSO assay concentration) was mixed with 6 μL CDK/Cyclin/Substrat (appropriate final concentration see Table 3) and 2 μL Tracer ATP solution (appropriate final concentration see Table 3). Positive and negative controls were calculated from at least 8 different sample wells. The 384 well plates were mixed in a Teleshaker plate mixer (Beckman Coulter, Brea, Calif., USA) at 2000 rpm for 40 sec, and incubated for 1 h at room temperature. Before reading, 10 μL the detection buffer (Lance Detection Buffer 1×; EDTA: […]; Eu-Anti-P-MBP: see Table 3) was added. The FRET signal was measured at 340 nm excitation, 665 nm and 615 nm emission (for the kinase tracer and LanthaScreen Eu-AB, respectively) with an Envision spectrophotometer (Perkin Elmer, Waltham, Mass., USA) with 50 μs delay and 300 μs integration time. IC50 values were determined from the sigmoidal dose response curves with the software Quattro Workflow (Quattro GmbH, Munich, Germany).

CDK7/CyclinH/MAT1 [1] = molecular target: T2, CDK7/CyclinH/MAT1 (Homo sapiens, UniProt P50613); experiment: LanthaScreen Eu Kinase Binding Assay, CDK7; conditions: tracer 236, read-out: CDK7 (activity range), Kd
T2 construct: purchased Carna Biosciences
Method: (§3) This protocol describes how the LanthaScreen Eu Kinase Binding Assay was performed to determine dissociation constants (Kd) of compounds of general formula (I) and CDK/Cyclin complexes. The principle behind this assay is based upon the binding and displacement of an Alexa Fluor 647-labeled tracer, which binds to the active site of kinases. Binding of the tracer to the kinase is detected using a Eu-labeled antibody. Simultaneous binding of both the tracer and antibody to the kinase gives rise to a FRET-signal. Binding of an inhibitor to the kinase competes for binding with the tracer, resulting in a loss of FRET.
(§4) The compounds of general formula (I) summarized in Table 1 were diluted from a 10 mM DMSO stock solution 1:10 in a total volume of 15 μL DMSO. This compound predilution was then serial diluted 1:3 over 8 steps in DMSO and briefly spun down. Each compound solution was now diluted 1:33.33 in kinase buffer (HEPES: 20 mM, pH: 8.0; MgCl2: 10 mM; DTT: 1 mM; Brij-35: 0.01%), mixed thoroughly and spun down. For every sample, 5 μL of the diluted compound were mixed with 5 μL tracer working solution (e.g. 60 nM tracer 236 in kinase buffer for CDK2/Cyclin A) and 5 μL CDK/Cyclin/Anti-GST-AB-working solution (e.g. 15 nM CDK2/Cyclin A, 1:250 dilution of Anti-GST-AB in kinase buffer) in a well of a small volume 384 well plate (Corning Incorporated, Corning, N.Y., USA; order no. 3673). The tracer concentration was adjusted to its dissociation constant (Kd) for the CDK/Cyclin, which was 30 nM for CDK2/Cyclin A, CDK7/Cyclin H and CDK9/Cyclin T1, 20 nM for CDK8/Cyclin C, and 35 nM for CDK9/Cyclin K. For negative controls, in each well 5 μL of DMSO working solution (3% DMSO diluted in kinase buffer) was mixed with 5 μL Anti-GST-AB working solution (e.g. 1:250 dilution of Anti-GST-AB in kinase buffer for CDK2/Cyclin A) and 5 μL Tracer working solution (e.g. 60 nM Tracer 236 in kinase buffer for CDK2/Cyclin A). For positive controls, in each well 5 μL of DMSO working solution (3% DMSO diluted in kinase buffer) was mixed with 5 μL CDK/Cyclin/Anti-GST-AB-working solution: (e.g. 15 nM CDK2/Cyclin A, 1:250 dilution of Anti-GST-AB in kinase buffer) and 5 μL Tracer working solution (e.g. 60 nM Tracer 236 in kinase buffer for CDK2/Cyclin A). Positive and negative controls were calculated from at least 8 different sample wells. The 384 well plates were mixed in a Teleshaker plate mixer (Beckman Coulter, Brea, Calif., USA) at 2000 rpm for 40 sec, and incubated for 1 h at room temperature before reading. The FRET signal was measured at 340 nm excitation, 665 nm and 615 nm emission (for the kinase tracer and LanthaScreen Eu-AB, respectively) with an Envision spectrophotometer (Perkin Elmer, Waltham, Mass., USA) with 50 μs delay and 300 μs integration time. Kd values were determined from the sigmoidal dose response curves with the software Quattro Workflow (Quattro GmbH, Munich, Germany).

CDK2/CyclinA [2] = molecular target: T3, CDK2/CyclinA (Homo sapiens, UniProt P24941); experiment: Lance Ultra KinaSelect Assay, CDK2; type: biochemical; conditions: ULight MBP substrate, ATP 3 μM; read-out: CDK2 LANCE assay (activity range), IC50
T3 construct: purchased Proqinase
Method: as §1, §2

CDK9/Cyclin T1 = molecular target: T4, CDK9/Cyclin T1 (Homo sapiens, UniProt P50750); experiment: LanthaScreen Eu Kinase Binding Assay, CDK9/Cyclin T1; conditions: tracer 236, read-out: CDK9/Cyclin T1 (activity range), Kd
T4 construct: purchased Invitrogen
Method: as §3, §4

CDK7/CyclinH/MAT1 [3] = molecular target: T2, CDK7/CyclinH/MAT1; experiment: Lance Ultra KinaSelect Assay, CDK7; type: biochemical; conditions: ULight MBP substrate, ATP 25 μM; read-out: CDK7 LANCE assay (activity range), IC50
Method: as §1, §2

CDK2/CyclinA [4] = molecular target: T3, CDK2/CyclinA; experiment: LanthaScreen Eu Kinase Binding Assay, CDK2; conditions: tracer 236, read-out: CDK2 (activity range), Kd
Method: as §3, §4

T2 sequence (P50613 whole entry): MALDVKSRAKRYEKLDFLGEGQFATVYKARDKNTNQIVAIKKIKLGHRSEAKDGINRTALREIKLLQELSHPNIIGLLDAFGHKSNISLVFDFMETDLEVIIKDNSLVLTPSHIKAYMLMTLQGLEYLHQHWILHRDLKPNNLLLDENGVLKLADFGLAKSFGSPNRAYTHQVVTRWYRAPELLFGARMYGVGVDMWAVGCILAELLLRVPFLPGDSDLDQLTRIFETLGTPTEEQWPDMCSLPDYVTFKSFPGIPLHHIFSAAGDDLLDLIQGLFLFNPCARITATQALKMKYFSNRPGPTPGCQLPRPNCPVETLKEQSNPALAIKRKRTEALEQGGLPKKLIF
T2 sequence (P51946 whole entry partner): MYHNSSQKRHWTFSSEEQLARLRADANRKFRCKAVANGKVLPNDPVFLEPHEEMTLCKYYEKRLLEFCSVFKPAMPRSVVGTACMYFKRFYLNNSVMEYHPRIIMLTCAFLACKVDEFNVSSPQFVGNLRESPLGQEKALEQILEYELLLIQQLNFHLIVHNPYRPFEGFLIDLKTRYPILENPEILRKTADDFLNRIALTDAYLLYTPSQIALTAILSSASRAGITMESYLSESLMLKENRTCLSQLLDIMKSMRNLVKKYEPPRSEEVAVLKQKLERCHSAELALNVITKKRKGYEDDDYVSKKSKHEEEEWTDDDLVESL
T2 sequence (P51948 whole entry partner): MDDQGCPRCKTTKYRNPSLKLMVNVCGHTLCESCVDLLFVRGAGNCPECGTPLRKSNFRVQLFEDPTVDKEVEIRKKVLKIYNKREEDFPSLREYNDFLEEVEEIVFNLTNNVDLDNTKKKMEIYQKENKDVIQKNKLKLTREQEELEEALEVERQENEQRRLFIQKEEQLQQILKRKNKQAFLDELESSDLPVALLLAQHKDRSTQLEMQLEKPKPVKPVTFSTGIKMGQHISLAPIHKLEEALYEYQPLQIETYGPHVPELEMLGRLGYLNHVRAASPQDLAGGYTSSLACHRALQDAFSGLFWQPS
T4 sequence (P50750 whole entry): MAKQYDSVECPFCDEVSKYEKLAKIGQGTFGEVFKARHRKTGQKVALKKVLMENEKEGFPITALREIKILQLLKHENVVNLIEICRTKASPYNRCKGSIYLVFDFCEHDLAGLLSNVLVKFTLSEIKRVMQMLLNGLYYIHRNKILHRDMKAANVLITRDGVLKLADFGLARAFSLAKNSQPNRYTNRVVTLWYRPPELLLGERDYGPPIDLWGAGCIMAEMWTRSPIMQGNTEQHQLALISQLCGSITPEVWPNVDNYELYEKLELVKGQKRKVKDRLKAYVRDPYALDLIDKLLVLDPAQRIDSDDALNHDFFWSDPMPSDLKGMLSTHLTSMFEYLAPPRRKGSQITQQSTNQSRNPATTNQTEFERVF
T4 sequence (O60563 whole entry partner): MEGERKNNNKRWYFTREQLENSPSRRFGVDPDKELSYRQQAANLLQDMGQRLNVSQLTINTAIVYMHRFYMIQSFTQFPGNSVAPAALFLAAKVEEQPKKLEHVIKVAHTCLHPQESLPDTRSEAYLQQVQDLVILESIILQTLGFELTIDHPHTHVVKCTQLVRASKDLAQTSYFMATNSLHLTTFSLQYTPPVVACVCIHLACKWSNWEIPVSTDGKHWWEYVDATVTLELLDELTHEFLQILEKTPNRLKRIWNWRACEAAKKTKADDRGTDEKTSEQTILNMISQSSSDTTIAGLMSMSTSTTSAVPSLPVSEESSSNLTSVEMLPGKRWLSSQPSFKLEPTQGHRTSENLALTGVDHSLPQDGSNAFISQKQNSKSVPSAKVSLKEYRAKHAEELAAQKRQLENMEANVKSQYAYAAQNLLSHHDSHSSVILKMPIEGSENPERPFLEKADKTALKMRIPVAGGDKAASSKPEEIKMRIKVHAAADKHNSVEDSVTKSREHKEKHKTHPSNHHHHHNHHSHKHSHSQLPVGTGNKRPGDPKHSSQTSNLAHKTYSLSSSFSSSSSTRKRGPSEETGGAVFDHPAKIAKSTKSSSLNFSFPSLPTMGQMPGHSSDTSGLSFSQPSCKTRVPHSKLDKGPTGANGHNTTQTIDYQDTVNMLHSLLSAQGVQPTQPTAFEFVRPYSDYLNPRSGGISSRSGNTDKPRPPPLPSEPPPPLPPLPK
T1 sequence (P50750 whole entry): as the sequence (P50750 whole entry) above

Row | IC50 (CDK9) | Kd (CDK7/CyclinH/MAT1 [1]) | IC50 (CDK2/CyclinA [2]) | Kd (CDK9/Cyclin T1) | IC50 (CDK7/CyclinH/MAT1 [3]) | Kd (CDK2/CyclinA [4]) | SMILES
1 | < 100 nM | > 10 µM | 100 to 1000 nM | < 100 nM | > 10 µM | < 100 nM | COc1ccccc1-c1ccnc(Nc2cccc(CS(N)(=O)=O)c2)c1 [Compound G2, [3-((4-(2-Methoxyphenyl)pyridin-2-yl)amino)phenyl]-methanesulfonamide]
2 |  | > 10 µM |  | 1000 to 10000 nM |  |  | COc1cc(F)ccc1-c1ccnc(Nc2cccc(S(=O)(=O)NC(C)(C)C)c2)c1 [Compound D2, N-(tert-Butyl)-3-[(4-(4-fluoro-2-methoxyphenyl)pyridin-2-yl)amino]-benzenesulfonamide]
3 | < 100 nM | > 10 µM | 1000 to 10000 nM | < 100 nM | > 10 µM | 100 to 1000 nM | COc1ccccc1-c1ccnc(Nc2cccc(CCS(N)(=O)=O)c2)c1 [Compound H1, 2-[3-((4-(2-Methoxyphenyl)pyridin-2-yl)amino)phenyl]-ethanesulfonamide]
